Measurements reported in US7915239B2, “Process for treating lameness administration of a bisphosphonic acid derivative” (Ceva Sante Animale, priority 1998, dated 2011).

How the values were obtained:
Assay type in all cases: in vivo
[1] = system: lameness associated with bone lesions during osteochondrosis; assay: Clinical study in horses with lameness associated with sub-chondral cysts during osteochondrosis; conditions: procedure as Example 1
Method: The study was carried out on 24 horses, the diagnosis of the navicular disease causing lameness being based on the following criteria: • local signs in the palmar region: heat, swelling, pain • functional signs of limping graded on a scale from 0 (no sign of limping) to 4 (trouble in bearing weight when at rest and/or in motion and difficulty in moving around) • a functional test of locomotion after flexing the palmar region, also assessed on a scale from 0 (locomotion not changed by flexure) to 4 (start of suppression of bearing weight) • a radiological examination to assess radiological signs in the palmar region qualitatively. All the animals received, as a single treatment, disodium tiludronate in the form of an injectable solution administered intravenously at a dose of 0.1 mg/kg, at a weekly administration rate for 6 to 10 weeks. The first day of treatment corresponds to D0. To assess the effects of the treatment, the animals were reviewed 1 month after D0 (M1), 2 months after D0 (M2) and 6 months after D0 (M6). The effects of the treatment were assessed with regard to: • the local signs, the functional signs and the test of locomotion after flexure as defined during inclusion of the animal into the test • a radiological examination to assess the change in the radiological signs • an assessment of the resumption of the animal's sporting activity. […] A clinical study was carried out to evaluate the effects of a treatment with disodium tiludronate on horses which develop lameness associated with bone lesions in the form of sub-chondral cysts during osteochondrosis. The test procedure and the clinical monitoring of the animals were the same as those described in Example 1, except that the local, functional and radiological signs were evaluated in the joints affected by osteochondrosis. 5 horses were included in this test. The results obtained were as follows (expressed as a percentage of animals present in each category): […]

[2] = system: lameness during bone spavin; assay: Clinical study in horses with lameness during bone spavin (osteoarthrosis of the distal stage of the tarsus); conditions: for percentage of animals in category Average / percentage of animals in category Favourable / percentage of animals in category Mediocre / percentage of animals in category Poor / percentage of animals in category Very favourable: procedure as Example 1
Method: The study was carried out on 24 horses, the diagnosis of the navicular disease causing lameness being based on the following criteria: • local signs in the palmar region: heat, swelling, pain • functional signs of limping graded on a scale from 0 (no sign of limping) to 4 (trouble in bearing weight when at rest and/or in motion and difficulty in moving around) • a functional test of locomotion after flexing the palmar region, also assessed on a scale from 0 (locomotion not changed by flexure) to 4 (start of suppression of bearing weight) • a radiological examination to assess radiological signs in the palmar region qualitatively.
All the animals received, as a single treatment, disodium tiludronate in the form of an injectable solution administered intravenously at a dose of 0.1 mg/kg, at a weekly administration rate for 6 to 10 weeks. The first day of treatment corresponds to D0.
To assess the effects of the treatment, the animals were reviewed 1 month after D0 (M1), 2 months after D0 (M2) and 6 months after D0 (M6). The effects of the treatment were assessed with regard to: • the local signs, the functional signs and the test of locomotion after flexure as defined during inclusion of the animal into the test • a radiological examination to assess the change in the radiological signs • an assessment of the resumption of the animal's sporting activity.
A clinical study was carried out in order to evaluate the effects of a treatment with disodium tiludronate on horses which develop lameness during bone spavin (which is osteoarthrosis of the distal stage of the tarsus).
The test procedure and the clinical monitoring of the animals were the same as those described in Example 1, except that the local, functional and radiological signs were assessed in the region of the hock.
5 horses were included in this test.
The results obtained were as follows (expressed as a percentage of animals present in each category): […]

[3] = system: lameness during enthesopathy of the insertion of the tendons and the ligaments; assay: Clinical study in horses with lameness during enthesopathy of the insertion of the tendons and the ligaments; conditions: procedure as Example 1
Method: The study was carried out on 24 horses, the diagnosis of the navicular disease causing lameness being based on the following criteria: • local signs in the palmar region: heat, swelling, pain • functional signs of limping graded on a scale from 0 (no sign of limping) to 4 (trouble in bearing weight when at rest and/or in motion and difficulty in moving around) • a functional test of locomotion after flexing the palmar region, also assessed on a scale from 0 (locomotion not changed by flexure) to 4 (start of suppression of bearing weight) • a radiological examination to assess radiological signs in the palmar region qualitatively. All the animals received, as a single treatment, disodium tiludronate in the form of an injectable solution administered intravenously at a dose of 0.1 mg/kg, at a weekly administration rate for 6 to 10 weeks. The first day of treatment corresponds to D0. To assess the effects of the treatment, the animals were reviewed 1 month after D0 (M1), 2 months after D0 (M2) and 6 months after D0 (M6). The effects of the treatment were assessed with regard to: • the local signs, the functional signs and the test of locomotion after flexure as defined during inclusion of the animal into the test • a radiological examination to assess the change in the radiological signs • an assessment of the resumption of the animal's sporting activity. […] A clinical study was carried out to evaluate the effects of a treatment with disodium tiludronate on horses which develop lameness during enthesopathy of the insertion of the tendons and the ligaments. The test procedure and the clinical monitoring of the animals were the same as those described in Example 1, except that the local, functional and radiological signs were evaluated in the region of the tendon or ligament insertions at the source of lameness. 6 horses were included in this test. The results obtained were as follows (expressed as a percentage of animals present in each category): […]

[4] = system: lameness during navicular disease (podotrochlear syndrome); assay: Clinical study in horses with lameness during navicular disease (podotrochlear syndrome); conditions: for percentage of animals in category Average / percentage of animals in category Favourable / percentage of animals in category Mediocre / percentage of animals in category Poor / percentage of animals in category Very favourable: 0.1 mg/kg i.v. weekly for 6 to 10 weeks
Method: A clinical study was carried out to evaluate the effects of a treatment with disodium tiludronate on horses which develop lameness during navicular disease (also known as podotrochlear syndrome). The study was carried out on 24 horses, the diagnosis of the navicular disease causing lameness being based on the following criteria: • local signs in the palmar region: heat, swelling, pain • functional signs of limping graded on a scale from 0 (no sign of limping) to 4 (trouble in bearing weight when at rest and/or in motion and difficulty in moving around) • a functional test of locomotion after flexing the palmar region, also assessed on a scale from 0 (locomotion not changed by flexure) to 4 (start of suppression of bearing weight) • a radiological examination to assess radiological signs in the palmar region qualitatively. To be included, the animal had to show no signs or lesions of septic arthritis, or any fractures of the bones in the palmar region. Also, it needed to have not received an injection for anti-inflammatory treatment in the joints of the palmar region. The wearing of an orthopaedic shoe was not contra-indicated since most of the animals had been […] for several weeks and were already wearing a shoe of this type. All the animals received, as a single treatment, disodium tiludronate in the form of an injectable solution administered intravenously at a dose of 0.1 mg/kg, at a weekly administration rate for 6 to 10 weeks. The first day of treatment corresponds to D0. To assess the effects of the treatment, the animals were reviewed 1 month after D0 (M1), 2 months after D0 (M2) and 6 months after D0 (M6). The effects of the treatment were assessed with regard to: • the local signs, the functional signs and the test of locomotion after flexure as defined during inclusion of the animal into the test • a radiological examination to assess the change in the radiological signs • an assessment of the resumption of the animal's sporting activity. […] The table below summarizes the effects of the treatment (expressed as a percentage of animals present in each category): […]

[5] = Examination at M1 (1 month after D0)
[6] = Examination at M2 (2 months after D0)
[7] = Examination at M6 (6 months after D0)

## O=P(O)(O)C(Sc1ccc(Cl)cc1)P(=O)(O)O [disodium tiludronate, 4-chlorophenylthiomethylenebisphosphonic acid]
[1]; [5]
  percentage of animals in category Average: 40%
  percentage of animals in category Favourable: 0%
  percentage of animals in category Mediocre: 0%
  percentage of animals in category Poor: 20%
  percentage of animals in category Very favourable: 40%
[1]; [6]
  percentage of animals in category Average: 20%
  percentage of animals in category Favourable: 40%
  percentage of animals in category Mediocre: 0%
  percentage of animals in category Poor: 20%
  percentage of animals in category Very favourable: 20%
[1]; [7]
  percentage of animals in category Average: 0%
  percentage of animals in category Favourable: 0%
  percentage of animals in category Mediocre: 40%
  percentage of animals in category Poor: 0%
  percentage of animals in category Very favourable: 60%
[2]; [5]
  percentage of animals in category Average: 60%
  percentage of animals in category Favourable: 40%
  percentage of animals in category Mediocre: 0%
  percentage of animals in category Poor: 0%
  percentage of animals in category Very favourable: 0%
[2]; [6]
  percentage of animals in category Average: 0%
  percentage of animals in category Favourable: 60%
  percentage of animals in category Mediocre: 0%
  percentage of animals in category Poor: 0%
  percentage of animals in category Very favourable: 40%
[2]; [7]
  percentage of animals in category Average: 20%
  percentage of animals in category Favourable: 20%
  percentage of animals in category Mediocre: 0%
  percentage of animals in category Poor: 20%
  percentage of animals in category Very favourable: 40%
[2]; after treatment
  change in lameness induced by bone spavin after treatment: favourable to very favourable in most of the animals
[3]; [5]
  percentage of animals in category Average: 33%
  percentage of animals in category Favourable: 50%
  percentage of animals in category Mediocre: 17%
  percentage of animals in category Poor: 0%
  percentage of animals in category Very favourable: 0%
[3]; [6]
  percentage of animals in category Average: 33%
  percentage of animals in category Favourable: 67%
  percentage of animals in category Mediocre: 0%
  percentage of animals in category Poor: 0%
  percentage of animals in category Very favourable: 0%
[3]; [7]
  percentage of animals in category Average: 0%
  percentage of animals in category Favourable: 40%
  percentage of animals in category Mediocre: 20%
  percentage of animals in category Poor: 0%
  percentage of animals in category Very favourable: 40%
[4]; [5]
  percentage of animals in category Average: 38%
  percentage of animals in category Favourable: 46%
  percentage of animals in category Mediocre: 4%
  percentage of animals in category Poor: 4%
  percentage of animals in category Very favourable: 8%
[4]; [6]
  percentage of animals in category Average: 26%
  percentage of animals in category Favourable: 43%
  percentage of animals in category Mediocre: 5%
  percentage of animals in category Poor: 0%
  percentage of animals in category Very favourable: 26%
[4]; [7]
  percentage of animals in category Average: 27%
  percentage of animals in category Favourable: 46%
  percentage of animals in category Mediocre: 9%
  percentage of animals in category Poor: 0%
  percentage of animals in category Very favourable: 18%
[4]; after administration of the treatment is started
  time at which the benefit of the treatment is optimal: 2 months
[4]; at the end of administration of the treatment
  share of animals with complete recovery: a quarter of the animals
[4]; pathological radiological signs
  radiological examination of the palmar region: did not reveal any change in kinetics of the pathological radiological signs
